Measurements: the METLIN SMRT retention time set (Domingo-Almenara et al. 2019)

Test: gradient 5% acetonitrile 3 min, to 50% in 2 min, to 85% in 15 min, held 3 min, 100 µL/min
Conditions: column: Zorbax Extend-C18 2.1 x 50 mm; eluents: water / acetonitrile, 0.1% formic acid
Summary of the method: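 Retention times of pure standards were taken from adduct peaks that were selected by computer and manually inspected. Over 3 months, mixtures of ~100 molecules were run by HPLC–quadrupole time-of-flight mass spectrometry in positive and negative ionization mode. The Zorbax Extend-C18 column (2.1 × 50 mm, 1.8 μm) ran at 100 μL/min in water and acetonitrile, each containing 0.1% formic acid, with 40 μL dead volume and 900 μL dwell volume.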

## Cc1ccn2c(NC(=O)c3ccco3)c(-c3ccccc3)nc2c1
  RP-LC retention time: 622 s

## CCSc1nnc(-c2nn(C)c3c2CN(C(=O)C2CCCCC2)CC3)n1C
  RP-LC retention time: 791 s

## Cc1ccc(-c2cc(C(=O)NCCC3=CCCCC3)c(C)[nH]2)cc1C
  RP-LC retention time: 1120 s

## COc1cc2c(cc1OC)C(C(=O)NCCN1CCOCC1)C1c3ccccc3CCN1C2=O (centres undefined)
  RP-LC retention time: 595 s

## COc1ccc(NC(=O)CSc2cc(C)nc(-c3cnccn3)n2)cc1Cl
  RP-LC retention time: 757 s

## Clc1ccc(N2CCN(Cc3cc4ccccn4n3)CC2)cc1
  RP-LC retention time: 754 s

## Cc1cc2nn(CC(=O)Nc3cccc(Cl)c3)c(=O)n2c(Nc2ccccc2)n1
  RP-LC retention time: 1060 s

## CCOCCCNCc1ccc(-c2ccc(F)cc2)o1
  RP-LC retention time: 672 s

## Cc1cc(-c2nnc(NC(=O)c3cc4cc([N+](=O)[O-])ccc4s3)o2)n(C)n1
  RP-LC retention time: 789 s

## CCOc1ccc(NC(=O)Cc2nnc3ccc(C(=O)Nc4ccccc4)cn23)cc1
  RP-LC retention time: 798 s

## CC(C)NC(=O)N1[C@H]2CC[C@@H]1c1cnc(-c3ccc(F)cc3)nc1C2
  RP-LC retention time: 839 s

## O=C(NCc1ccc(F)cc1)c1cn2ccncc2n1
  RP-LC retention time: 667 s

## Cc1ccc(F)c(NS(=O)(=O)c2cc3c(s2)CCN(C(=O)C2CCC2)C3)c1
  RP-LC retention time: 891 s

## Cc1cc(C)cc(Nc2nc(C)cc3nn(CC(=O)N(C)c4ccccc4)c(=O)n23)c1
  RP-LC retention time: 1160 s

## CCOC(=O)Nc1ccccc1NC(=O)OCC
  RP-LC retention time: 717 s

## CC(=O)NC(CCS(C)(=O)=O)C(=O)Nc1ccc(-c2nc3ccc(C)cc3s2)cc1 (centres undefined)
  RP-LC retention time: 741 s

## Cc1nn(-c2cccc(Cl)c2)c2nc(N3CCCC(C(=O)NC4CC4)C3)sc12 (centres undefined)
  RP-LC retention time: 1060 s

## O=C(Nc1ccc2c(c1)OCO2)c1c(O)c2ccccc2n(-c2ccccc2)c1=O
  RP-LC retention time: 858 s

## Cc1cccc(N2CCN(C(=O)C3CCN(S(=O)(=O)c4cccc5nsnc45)CC3)CC2)c1C
  RP-LC retention time: 1050 s

## Cc1ccc(Cn2c(N3CCCC(C(=O)NC4CCCC4)C3)nc3ccsc3c2=O)cc1 (centres undefined)
  RP-LC retention time: 967 s

## O=C(Cn1ccc2sccc2c1=O)Nc1cccc(Br)c1
  RP-LC retention time: 793 s

## COc1ccc(OC)c(-c2cc(C(=O)N3CCC(C(=O)NCC(F)(F)F)CC3)[nH]n2)c1
  RP-LC retention time: 705 s

## CCOC(=O)c1nc(NCCc2ccc(C)cc2)c2ccccc2n1
  RP-LC retention time: 821 s

## CN(C)C[C@@H]1CN(c2ncccn2)C[C@H]1NC(=O)c1ccc2ccccc2n1
  RP-LC retention time: 595 s

## Cc1ccc(CNC(=O)C2(C)CCCN(C(=O)Nc3ccc(C)c(Cl)c3)C2)cc1 (centres undefined)
  RP-LC retention time: 1110 s

## CCn1cc(-c2nc(C)c(C(=O)Nc3cccc(OC)c3)s2)c2cccnc21
  RP-LC retention time: 983 s

## COc1ccccc1-c1noc(Cn2c(=O)n(-c3cccc(F)c3)c(=O)c3sccc32)n1
  RP-LC retention time: 880 s

## O=C(NCc1ccco1)C1CCN(c2cncnc2N2CCCCC2)CC1
  RP-LC retention time: 646 s

## Cc1ccc(Cn2c(C)c(CNCc3ccco3)c(C(=O)O)c2C)cc1
  RP-LC retention time: 666 s

## COC(=O)C1=CN(C2CC2)c2cc(N3CCN(c4ccc(C(C)=O)cc4)CC3)c(F)cc2S1(=O)=O
  RP-LC retention time: 906 s

## Cc1csc(-c2cc(S(=O)(=O)Nc3ccc(Cl)cc3F)cn2CC(=O)N2CCCC2)n1
  RP-LC retention time: 944 s

## Cc1ccc(Nc2c(-c3ccc(O)cc3)nc3ccc(Cl)cn23)cc1
  RP-LC retention time: 696 s

## COCCN(C)C(=O)c1cn(C2CN(S(=O)(=O)C(C)C)C2)nn1
  RP-LC retention time: 635 s

## CCc1noc(C2CCCCN2Cc2nc(Cc3ccccc3)no2)n1 (centres undefined)
  RP-LC retention time: 958 s

## COCc1noc([C@@H]2CN(Cc3cccc(OC)n3)C[C@H]2COC)n1
  RP-LC retention time: 612 s

## COCCOC(=O)C1=C(C)NC2=C(C(=O)C(C(=O)OC)C(C)C2)C1c1ccccc1F (centres undefined)
  RP-LC retention time: 806 s

## COc1cccc(C(C#N)N2N=C(C)CC2c2ccccc2)c1O (centres undefined)
  RP-LC retention time: 965 s

## Cc1ccc(CNC(=O)C2CCCN(c3cnn(C)c(=O)c3)C2)cc1 (centres undefined)
  RP-LC retention time: 715 s

## Cc1cc2c(cc1S(=O)(=O)N1CCCC1C(=O)NCc1ccc3c(c1)OCO3)OC(C)C(=O)N2 (centres undefined)
  RP-LC retention time: 755 s

## COCCn1ccc2nc(C)c(C(=O)Nc3cccc(SC)c3)cc2c1=O
  RP-LC retention time: 746 s

## COc1cccc(NC(=O)C2CCCN(C(=O)C3Sc4ccccc4NC3=O)C2)c1 (centres undefined)
  RP-LC retention time: 786 s

## O=C(O)CSc1nc2ccccc2s1
  RP-LC retention time: 795 s

## CCN1C(=O)COc2ccc(-c3noc(C4CC(=O)N(c5ccccc5)C4)n3)cc21 (centres undefined)
  RP-LC retention time: 879 s

## CCC(=O)N1CCc2cc(CNS(=O)(=O)c3ccc(OC)c(OC)c3)ccc21
  RP-LC retention time: 747 s

## COc1ccc(-c2nc3cc(C)ccn3c2NC(=O)c2ccc(OC)cc2OC)cc1
  RP-LC retention time: 706 s

## Clc1ccc(Cl)c(-c2ccc(CNCc3ccncc3)o2)c1
  RP-LC retention time: 664 s

## CCCNC(=O)N1CCCC1c1nc(-c2cccc(C(F)(F)F)c2)no1 (centres undefined)
  RP-LC retention time: 963 s

## O=S(=O)(c1cc(-c2noc(C3CCCC3)n2)cs1)N1CCCC1
  RP-LC retention time: 1110 s

## COc1ccc(C)cc1NC(=O)C1CCCN(S(=O)(=O)c2cc(-c3noc(C)n3)cs2)C1 (centres undefined)
  RP-LC retention time: 1040 s

## CCCNC(=O)c1nn(-c2ccc(OC)cc2)c(OC)cc1=O
  RP-LC retention time: 661 s

## CCc1cc(=O)n(CC(=O)Nc2ccc3c(c2)OCO3)c(-c2cccc(F)c2)n1
  RP-LC retention time: 1100 s

## COc1ccc(OC)c(CNC(=O)COc2ccc(NC(=O)C3CC3)cn2)c1
  RP-LC retention time: 712 s

## CC(C)CCn1nc2c(S(=O)(=O)N3CCCCCC3)cccn2c1=O
  RP-LC retention time: 982 s

## O=C(Nc1ccc(F)cc1)C1CC(=O)N(c2ccc3c(c2)CCN3C(=O)C2CC2)C1 (centres undefined)
  RP-LC retention time: 775 s

## CCOc1cccc(-c2noc(Cn3ccn4nc(-c5ccc(C)c(C)c5)cc4c3=O)n2)c1
  RP-LC retention time: 1220 s

## Cc1ccc(Nc2c(-c3ccc(O)cc3)nc3ncccn23)c(C)c1
  RP-LC retention time: 719 s

## CC(C)CN1CCN(C(=O)c2nc(-c3ccnc(N4CCCCC4)c3)no2)CC1
  RP-LC retention time: 588 s

## COC(=O)c1cnn(-c2ccc(C)cc2)c1N
  RP-LC retention time: 704 s

## COc1ccccc1NC(=O)N1CCC(CNC(=O)c2ccccc2C(F)(F)F)CC1
  RP-LC retention time: 763 s

## CCCNC(=O)C1CCCN(c2nc3ccsc3c(=O)n2-c2ccc(C)cc2)C1 (centres undefined)
  RP-LC retention time: 1250 s

## COc1ccc(C)cc1NC(=O)N1CCCC(C)(C(=O)NCc2ccc(C)cc2)C1 (centres undefined)
  RP-LC retention time: 968 s

## COc1ccc(S(=O)(=O)N2CCC(c3noc(-c4ccccc4C)n3)CC2)cc1OC
  RP-LC retention time: 1090 s

## CCc1nnc([C@@H]2CC(F)(F)CN2C(=O)c2ccc3nc[nH]c3c2)o1
  RP-LC retention time: 540 s

## O=C(NCCSC12CC3CC(CC(C3)C1)C2)c1ccc(CN2C(=O)CCn3nccc32)cc1
  RP-LC retention time: 645 s

## CCC(=O)N1CCc2cc(C)c(S(=O)(=O)NC3CCCC3)cc21
  RP-LC retention time: 869 s

## CCOC(=O)c1nc(N2CCN(c3ccccc3OC)CC2)c2ccccc2n1
  RP-LC retention time: 809 s

## COCCCNC(=O)c1csc(-c2cnccn2)n1
  RP-LC retention time: 625 s

## O=C1CC(CNS(=O)(=O)c2cccnc2)CN1c1ccc(Cl)cc1 (centres undefined)
  RP-LC retention time: 694 s

## Cc1nc(C(=O)N2CCCCCC2c2nnc(C)o2)co1 (centres undefined)
  RP-LC retention time: 649 s

## Cc1cc(N2CCC(C)CC2)n2nc(-c3ccc(Cl)cc3)nc2n1
  RP-LC retention time: 1170 s

## CC(=O)NCc1nc(-c2ccc3c(c2)nc(C)c(=O)n3C2CCCC2)no1
  RP-LC retention time: 707 s

## Cc1ccc(NS(=O)(=O)c2cc3n(c2)CCN(C(C)C)C3=O)c(F)c1
  RP-LC retention time: 765 s

## CC1(C(=O)NCc2ccccc2)CN(S(=O)(=O)c2ccccc2)CC(=O)N1c1ccc(Cl)cc1 (centres undefined)
  RP-LC retention time: 956 s

## COCc1nc2ccccc2n1CC(=O)NCC1CCCO1 (centres undefined)
  RP-LC retention time: 532 s

## CC1=C(c2ccc(C(C)C)cc2)S(=O)(=O)N=C1N1CCC(NC(=O)C2CCOC2)CC1 (centres undefined)
  RP-LC retention time: 788 s

## CCCNC(=O)C1CCN(Cc2cc3ccccc3n2Cc2ccc(Cl)cc2)CC1
  RP-LC retention time: 768 s

## CN1CCN(CCCNC(=O)c2ccc3c(c2)N(C)C(=O)C2CCCCN32)CC1 (centres undefined)
  RP-LC retention time: 575 s

## CCS(=O)(=O)c1cccc(C(=O)Nc2nnc(-c3ccsc3)o2)c1
  RP-LC retention time: 662 s

## COc1ccccc1-n1ccn2cc(-c3ccc(F)cc3)nc2c1=O
  RP-LC retention time: 783 s

## CCCCN(CC)C(=O)Cn1c(=O)c2cnc(-c3ccccc3)nc2n(C)c1=O
  RP-LC retention time: 1070 s

## CCN1CCCC1CNC(=O)C1c2ccccc2C(=O)N(CCOC)C1c1ccc(F)cc1 (centres undefined)
  RP-LC retention time: 640 s

## COc1ccc(Br)cc1CNC(=O)C1CCN(c2ccc3nnc(C)n3n2)CC1
  RP-LC retention time: 797 s

## O=C(C1COc2ccccc2O1)N1CCCN(C2CCN(CC3CC3)C2=O)CC1 (centres undefined)
  RP-LC retention time: 560 s

## Cc1c(C(=O)N2CCC(C)CC2)c(S(=O)(=O)N2CCN(c3ccccn3)CC2)c(C)n1C
  RP-LC retention time: 664 s

## Cc1cccc(NC(=O)Cn2c(=O)n(-c3ccc(F)cc3)c3ncccc32)c1C
  RP-LC retention time: 880 s

## COc1ccc(N2CC(C(=O)N3CCc4cc(-c5ccno5)ccc43)CC2=O)cc1 (centres undefined)
  RP-LC retention time: 807 s

## Cc1ccc(N2CCC(NC(=O)C(C)C)C2=O)cc1C (centres undefined)
  RP-LC retention time: 762 s

## O=C(NC1CCCC1)N1CCC(c2noc(-c3ccccc3)n2)C1 (centres undefined)
  RP-LC retention time: 868 s

## CCCNc1cc(N2CCC(CCC(=O)NCc3cccc(Cl)c3)CC2)ncn1
  RP-LC retention time: 718 s
